# Data: patent US20150018311A1, “THERAPEUTIC BORON-CONTAINING COMPOUNDS” (priority 2012, published 2015)
# Key:
# Assay in all cases: Growth in liquid media in presence of test compound
# Format in all cases: cell-based
# [1] = tested on: Mycobacterium tuberculosis (H37Rv)
# [2] = tested on: Staphylococcus aureus (ATCC 25923)
# From the text: (§1) Test organisms used were the bacterial strains Escherichia coli (ATCC 25922), Pseudomonas aeruginosa (ATCC 27853), Staphylococcus aureus (ATCC 25923), Streptococcus pyogenes (ATCC 19615), and Mycobacterium tuberculosis (H37Rv), and the yeast strain Candida albicans (ATCC 90028).
# (§2) The liquid media used for growth were Luria-Bertani (Becton Dickinson, Sparks, Md.) and Mueller-Hinton (bio-Merieux, Paris, France) broths, but with Saburo medium for Candida and Middlebrook 7H9 medium (Difco) for mycobacteria.
# (§3) The strains were grown at 37° C. and after suitable cell concentrations had been reached, 100 μL of each cell suspension was added to a tube with growth media and test compound. Cultivation of the bacteria was then carried out in the presence of each test compound at 37° C. and the tubes examined for visible growth. The compounds were tested at concentrations of either 500 mg/l, 50 mg/l or 5 mg/l. This assay was repeated twice.
# (§4) Some compounds were only tested against some test organisms. It will be appreciated that the charge of these molecules will depend on the environment, some of the Examples are shown with a suitable counter ion, some without.
# [3] = tested on: Streptococcus pyogenes (ATCC 19615)
# From the text: as §1, §2, §3, §4
# [4] = tested on: Candida albicans (ATCC 90028)
# From the text: as §1, §2, §3, §4
# [5] = tested on: Escherichia coli (ATCC 25922)
# From the text: as §1, §2, §3, §4
# [6] = tested on: Pseudomonas aeruginosa (ATCC 27853)
# From the text: as §1, §2, §3, §4
SMILES,"Growth in the presence of test compound, M. tuberculosis ([1]; 5 mg/L)","Growth in the presence of test compound, M. tuberculosis ([1]; 50 mg/L)","Growth in the presence of test compound, M. tuberculosis ([1]; 500 mg/L)","Growth in the presence of test compound, S. aureus ([2]; 5 mg/L)","Growth in the presence of test compound, S. aureus ([2]; 50 mg/L)","Growth in the presence of test compound, S. aureus ([2]; 500 mg/L)","Growth in the presence of test compound, S. pyogenes ([3]; 5 mg/L)","Growth in the presence of test compound, S. pyogenes ([3]; 50 mg/L)","Growth in the presence of test compound, S. pyogenes ([3]; 500 mg/L)","Growth in the presence of test compound, C. albicans ([4]; 5 mg/L)","Growth in the presence of test compound, C. albicans ([4]; 50 mg/L)","Growth in the presence of test compound, C. albicans ([4]; 500 mg/L)","Growth in the presence of test compound, E. coli ([5]; 5 mg/L)","Growth in the presence of test compound, E. coli ([5]; 50 mg/L)","Growth in the presence of test compound, E. coli ([5]; 500 mg/L)","Growth in the presence of test compound, P. aeruginosa ([6]; 5 mg/L)","Growth in the presence of test compound, P. aeruginosa ([6]; 50 mg/L)","Growth in the presence of test compound, P. aeruginosa ([6]; 500 mg/L)"
CC1(C)C2CC3OB(CC(Cc4ccccc4)NC(=O)C(N)Cc4ccccc4)OC3(C)C1C2 (stereo not drawn) [Compound 2],+,+,±,,,,,,,,,,,,,,,
CC(N)C(=O)NC(CB1OC2CC3CC(C3(C)C)C2(C)O1)Cc1ccccc1 (stereo not drawn) [Compound 3],+,−,−,+,+,−,+,+,−,,,,,,,,,
CC1(C)C2CC3OB(CC(Cc4ccccc4)NC(=O)C(N)CCCNC(=N)N)OC3(C)C1C2 (stereo not drawn) [Compound 4],+,−,−,+,+,−,+,+,−,+,+,−,+,+,−,,,
CC1(C)C2CC3OB(CC(Cc4ccccc4)NC(=O)C(N)Cc4c[nH]c5ccccc45)OC3(C)C1C2 (stereo not drawn) [Compound 5],+,±,−,+,+,−,,,,,,,,,,,,
CC(CB1OC2CC3CC(C3(C)C)C2(C)O1)NC(=O)C(N)CCCCN (stereo not drawn) [Compound 6],+,+,±,,,,,,,,,,,,,,,
CC(N)C(=O)NC(CB1OC2CC3CC(C3(C)C)C2(C)O1)c1ccccc1 (stereo not drawn) [Compound 8],+,+,−,+,+,±,,,,,,,,,,,,
CC1(C)C2CC3OB([C@@H](CNC(=O)[C@@H](N)CCCCN)Cc4ccccc4)O[C@]3(C)C1C2 (stereo partly drawn) [Compound 9],−,−,−,+,+,−,+,+,−,+,+,−,,,,+,+,±
CC1(C)C2CC3OB([C@@H](CNC(=O)[C@@H](N)Cc4ccccc4)Cc4ccccc4)O[C@]3(C)C1C2 (stereo partly drawn) [Compound 10],−,−,−,+,+,±,+,+,±,+,+,±,,,,,,
C[C@H](CNC(=O)[C@@H](N)CCCCN)B1OC2CC3CC(C3(C)C)[C@@]2(C)O1 (stereo partly drawn) [Compound 16],+,±,−,,,,,,,+,+,±,,,,,,
C[C@H](CNC(=O)[C@@H](N)Cc1ccccc1)B1OC2CC3CC(C3(C)C)[C@@]2(C)O1 (stereo partly drawn) [Compound 17],+,+,−,+,+,−,+,+,−,+,+,±,,,,,,
CC1(C)C2CC3OB([C@@H](CNC(=O)[C@@H](N)Cc4ccccc4)c4ccccc4)O[C@]3(C)C1C2 (stereo partly drawn) [Compound 23],+,+,−,+,+,−,+,+,−,+,+,−,,,,,,
CC1(C)C2CC3OB(C(CNC(=O)C(N)CCCCN)c4ccccc4)OC3(C)C1C2 (stereo not drawn) [Compound 24],+,+,−,,,,,,,,,,,,,,,
C[C@@H](NC(=O)[C@@H](N)Cc1ccccc1)[C@@H](Cc1ccccc1)B1OC2CC3CC(C3(C)C)[C@@]2(C)O1 (stereo partly drawn) [Compound 27],+,−,±,,,,+,+,±,+,+,±,,,,,,
C[C@@H](B1OC2CC3CC(C3(C)C)[C@@]2(C)O1)[C@@H](Cc1ccccc1)NC(=O)[C@@H](N)Cc1ccccc1 (stereo partly drawn) [Compound 28],+,−,−,+,+,±,+,+,±,+,+,±,,,,,,
CC1(C)C2CC3OB(CCNC(=O)[C@@H](N)CCCCN)O[C@]3(C)C1C2 (stereo partly drawn) [Compound 32],+,+,−,,,,,,,+,+,−,+,+,±,,,
N[C@@H](Cc1ccccc1)C(=O)N[C@@H](CB(O)O)Cc1ccccc1 [Compound 33],±,−,−,,,,,,,,,,,,,,,
C[C@H](N)C(=O)N[C@@H](CB(O)O)Cc1ccccc1 [Compound 35],+,+,−,,,,,,,,,,,,,,,
NCCCC[C@H](N)C(=O)NC[C@@H](CCc1ccccc1)B(O)O [Compound 37],+,+,−,,,,,,,+,+,−,,,,,,
N[C@@H](Cc1ccccc1)C(=O)NC[C@@H](CCc1ccccc1)B(O)O [Compound 39],+,+,−,,,,,,,,,,+,+,−,,,
C[C@H](N)C(=O)NC[C@H](Cc1ccccc1)B(O)O [Compound 40],±,±,−,,,,,,,,,,,,,,,
